Experiments:
Experiment in all cases: relative viability (nuclei count vs DMSO), 5 days (fraction); higher = more cells survive
EBC-1 = tested on: EBC-1
Method in brief: (§1)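 Values are medians from duplicate plates. Each reflects relative viability, defined as the nuclei count of treated wells over that of vehicle wells. Lung cancer cell lines in 1536-well plates were pin-tool dosed one day after seeding with one drug alone or with a fixed anchor-drug dose plus five library-drug doses (not always all listed) in √10 steps, then fixed, stained and imaged at 4× after 5 days.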

NCI-H1703 = tested on: NCI-H1703
Method in brief: as §1

Calu-6 = tested on: Calu-6
Method in brief: as §1

A549 = tested on: A549
Method in brief: as §1

NCI-H1299 = tested on: NCI-H1299
Method in brief: as §1

NCI-H1563 = tested on: NCI-H1563
Method in brief: as §1

IA-LM = tested on: IA-LM
Method in brief: as §1

O=c1[nH]c2ccccc2n1C1CCN(CCCC(c2ccc(F)cc2)c2ccc(F)cc2)CC1 [Pimozide] + C[C@@H](Oc1cc(-c2cnn(C3CCNCC3)c2)cnc1N)c1c(Cl)ccc(F)c1Cl [Crizotinib] (partner 1 µM)
relative viability (EBC-1; first compound 0.08 µM): 0.19 | relative viability (EBC-1; first compound 0.253 µM): 0.232 | relative viability (EBC-1; first compound 0.8 µM): 0.199 | relative viability (EBC-1; first compound 2.53 µM): 0.175 | relative viability (EBC-1; first compound 8 µM): 0.152 | relative viability (NCI-H1703; first compound 0.08 µM): 0.489 | relative viability (NCI-H1703; first compound 0.253 µM): 0.852 | relative viability (NCI-H1703; first compound 0.8 µM): 0.666 | relative viability (NCI-H1703; first compound 2.53 µM): 0.403 | relative viability (NCI-H1703; first compound 8 µM): 0.545 | relative viability (Calu-6; first compound 0.08 µM): 0.781 | relative viability (Calu-6; first compound 0.253 µM): 0.814 | relative viability (Calu-6; first compound 0.8 µM): 0.793 | relative viability (Calu-6; first compound 2.53 µM): 0.679 | relative viability (Calu-6; first compound 8 µM): 0.624 | relative viability (A549; first compound 0.08 µM): 0.756 | relative viability (A549; first compound 0.253 µM): 0.668 | relative viability (A549; first compound 0.8 µM): 0.643 | relative viability (A549; first compound 2.53 µM): 0.658 | relative viability (A549; first compound 8 µM): 0.644 | relative viability (NCI-H1299; first compound 0.08 µM): 0.955 | relative viability (NCI-H1299; first compound 0.253 µM): 0.838 | relative viability (NCI-H1299; first compound 0.8 µM): 0.934 | relative viability (NCI-H1299; first compound 2.53 µM): 0.811 | relative viability (NCI-H1299; first compound 8 µM): 0.885 | relative viability (NCI-H1563; first compound 0.08 µM): 0.824 | relative viability (NCI-H1563; first compound 0.253 µM): 0.844 | relative viability (NCI-H1563; first compound 0.8 µM): 0.803 | relative viability (NCI-H1563; first compound 2.53 µM): 0.775 | relative viability (NCI-H1563; first compound 8 µM): 0.645 | relative viability (IA-LM; first compound 0.08 µM): 0.975 | relative viability (IA-LM; first compound 0.253 µM): 0.88 | relative viability (IA-LM; first compound 0.8 µM): 0.988 | relative viability (IA-LM; first compound 2.53 µM): 0.879 | relative viability (IA-LM; first compound 8 µM): 0.859

Cc1cnc(-c2cnc(NCCNc3ccc(C#N)cn3)nc2-c2ccc(Cl)cc2Cl)[nH]1 + CS(=O)(=O)CCNCc1ccc(-c2ccc3ncnc(Nc4ccc(OCc5cccc(F)c5)c(Cl)c4)c3c2)o1 [Lapatinib] (partner 2 µM)
relative viability (EBC-1; first compound 0.08 µM): 0.253 | relative viability (EBC-1; first compound 0.253 µM): 0.201 | relative viability (EBC-1; first compound 0.8 µM): 0.215 | relative viability (EBC-1; first compound 2.53 µM): 0.248 | relative viability (NCI-H1703; first compound 0.08 µM): 1.12 | relative viability (NCI-H1703; first compound 0.253 µM): 1.02 | relative viability (NCI-H1703; first compound 0.8 µM): 1.2 | relative viability (NCI-H1703; first compound 2.53 µM): 1.28 | relative viability (Calu-6; first compound 0.08 µM): 1.14 | relative viability (Calu-6; first compound 0.253 µM): 0.991 | relative viability (Calu-6; first compound 0.8 µM): 1 | relative viability (Calu-6; first compound 2.53 µM): 1.03 | relative viability (A549; first compound 0.08 µM): 0.96 | relative viability (A549; first compound 0.253 µM): 0.942 | relative viability (A549; first compound 0.8 µM): 1.16 | relative viability (A549; first compound 2.53 µM): 1.14 | relative viability (NCI-H1299; first compound 0.08 µM): 0.954 | relative viability (NCI-H1299; first compound 0.253 µM): 0.983 | relative viability (NCI-H1299; first compound 0.8 µM): 0.948 | relative viability (NCI-H1299; first compound 2.53 µM): 0.862 | relative viability (NCI-H1563; first compound 0.08 µM): 1.06 | relative viability (NCI-H1563; first compound 0.253 µM): 0.997 | relative viability (NCI-H1563; first compound 0.8 µM): 0.963 | relative viability (NCI-H1563; first compound 2.53 µM): 1.01 | relative viability (IA-LM; first compound 0.08 µM): 0.985 | relative viability (IA-LM; first compound 0.253 µM): 0.864 | relative viability (IA-LM; first compound 0.8 µM): 0.679 | relative viability (IA-LM; first compound 2.53 µM): 0.685

O=C(O)CCCCC(CCSCc1ccccc1)SCc1ccccc1 (configuration not stated) [CPI-613] + C[C@]1(O)C[C@@H](c2nc(-c3ccc4ccc(-c5ccccc5)nc4c3)c3c(N)nccn32)C1 [Linsitinib] (partner 1 µM)
relative viability (EBC-1; first compound 5 µM): 0.874 | relative viability (EBC-1; first compound 15.81 µM): 0.695 | relative viability (EBC-1; first compound 50 µM): 0.593 | relative viability (EBC-1; first compound 158.11 µM): 0.786 | relative viability (EBC-1; first compound 500 µM): 0.608 | relative viability (NCI-H1703; first compound 5 µM): 1.21 | relative viability (NCI-H1703; first compound 15.81 µM): 0.809 | relative viability (NCI-H1703; first compound 50 µM): 0.568 | relative viability (NCI-H1703; first compound 158.11 µM): 0.17 | relative viability (NCI-H1703; first compound 500 µM): 0.439 | relative viability (Calu-6; first compound 5 µM): 1.02 | relative viability (Calu-6; first compound 50 µM): 0.726 | relative viability (Calu-6; first compound 158.11 µM): 0.905 | relative viability (Calu-6; first compound 500 µM): 0.658 | relative viability (A549; first compound 5 µM): 0.529 | relative viability (A549; first compound 15.81 µM): 0.521 | relative viability (A549; first compound 50 µM): 0.588 | relative viability (A549; first compound 158.11 µM): 0.722 | relative viability (A549; first compound 500 µM): 0.597 | relative viability (NCI-H1299; first compound 5 µM): 0.933 | relative viability (NCI-H1299; first compound 15.81 µM): 0.894 | relative viability (NCI-H1299; first compound 50 µM): 0.869 | relative viability (NCI-H1299; first compound 158.11 µM): 1 | relative viability (NCI-H1299; first compound 500 µM): 0.957 | relative viability (NCI-H1563; first compound 5 µM): 1.26 | relative viability (NCI-H1563; first compound 15.81 µM): 1.21 | relative viability (NCI-H1563; first compound 50 µM): 1.23 | relative viability (NCI-H1563; first compound 158.11 µM): 0.454 | relative viability (NCI-H1563; first compound 500 µM): 0.208 | relative viability (IA-LM; first compound 5 µM): 0.703 | relative viability (IA-LM; first compound 15.81 µM): 0.364 | relative viability (IA-LM; first compound 50 µM): 0.432 | relative viability (IA-LM; first compound 158.11 µM): 0.527 | relative viability (IA-LM; first compound 500 µM): 0.358

O=c1[nH]c2ccccc2n1C1CCN(CCCC(c2ccc(F)cc2)c2ccc(F)cc2)CC1 [Pimozide] + Cc1nc(NC(=O)N2CCC[C@H]2C(N)=O)sc1-c1ccnc(C(C)(C)C(F)(F)F)c1 [Alpelisib] (partner 2 µM)
relative viability (EBC-1; first compound 0.08 µM): 0.895 | relative viability (EBC-1; first compound 0.253 µM): 0.724 | relative viability (EBC-1; first compound 0.8 µM): 0.823 | relative viability (EBC-1; first compound 2.53 µM): 0.796 | relative viability (EBC-1; first compound 8 µM): 0.728 | relative viability (NCI-H1703; first compound 0.08 µM): 0.323 | relative viability (NCI-H1703; first compound 0.253 µM): 0.325 | relative viability (NCI-H1703; first compound 0.8 µM): 0.385 | relative viability (NCI-H1703; first compound 2.53 µM): 0.258 | relative viability (NCI-H1703; first compound 8 µM): 0.274 | relative viability (Calu-6; first compound 0.08 µM): 0.938 | relative viability (Calu-6; first compound 0.253 µM): 0.999 | relative viability (Calu-6; first compound 0.8 µM): 0.92 | relative viability (Calu-6; first compound 2.53 µM): 0.844 | relative viability (Calu-6; first compound 8 µM): 0.883 | relative viability (A549; first compound 0.08 µM): 0.727 | relative viability (A549; first compound 0.253 µM): 0.762 | relative viability (A549; first compound 0.8 µM): 0.678 | relative viability (A549; first compound 2.53 µM): 0.707 | relative viability (A549; first compound 8 µM): 0.617 | relative viability (NCI-H1299; first compound 0.08 µM): 1.04 | relative viability (NCI-H1299; first compound 0.253 µM): 0.981 | relative viability (NCI-H1299; first compound 0.8 µM): 1.04 | relative viability (NCI-H1299; first compound 2.53 µM): 1.07 | relative viability (NCI-H1299; first compound 8 µM): 1.12 | relative viability (NCI-H1563; first compound 0.08 µM): 0.919 | relative viability (NCI-H1563; first compound 0.253 µM): 0.814 | relative viability (NCI-H1563; first compound 0.8 µM): 0.819 | relative viability (NCI-H1563; first compound 2.53 µM): 0.798 | relative viability (NCI-H1563; first compound 8 µM): 0.739 | relative viability (IA-LM; first compound 0.08 µM): 0.695 | relative viability (IA-LM; first compound 0.253 µM): 0.846 | relative viability (IA-LM; first compound 0.8 µM): 0.666 | relative viability (IA-LM; first compound 2.53 µM): 0.894 | relative viability (IA-LM; first compound 8 µM): 0.853

— the supplement of paper PMC10307832
